Measurements reported in USRE28700E, “Antibiotic X-5108 for stimulating growth” (Hoffmann-La Roche Inc., priority 1972, dated 1976).
Like-named read-outs stand apart in the source and are kept apart here.

Experiments:
Proteus vulgaris = experiment: Activity against gram-negative Proteus vulgaris infection; conditions: in vivo
Diplococcus pneumoniae = experiment: Activity against Diplococcus pneumoniae (CD50); format: in vivo
[1] = Growth stimulating effect and feed efficiency in chicks, repeated trials at varied levels (Table 13); format: in vivo, Cornish Cross Sexed Broiler Chicks; conditions: for Percent gain: control = 100
Experimental: (§1) The growth stimulating effects of antibiotic X-5108 were determined by allowing poultry to feed, ad libitum, on the antibiotic supplemented ration. In the test, one day old Cornish Cross Sexed Broiler Chicks were used. The test utilized 10 chicks per replicate (5 males and 5 females). The replicate groups were permitted access to the ration. A planned random distribution of the replicates was made to equalize factors of heating, light and position. The birds were observed over a two week period, with group weight being determined several times during the period and individual weights being determined at the end of 14 days. Feed consumption was also recorded and improvement in feed efficiency, as compared to the control, was calculated.
(§2) The average gain for each test group is divided by the average gain of the negative control group and the quotient multiplied by 100 to yield the percent weight gain. Gain is the final body weight of the chick at the end of the 2 week test minus the beginning weight of 1 day of age. [formula]
The experiment described in Example 5, including the control, was repeated several times using the same basal ration as in Example 5. In these trials the level of antibiotic X-5108 was varied. The trial chickens were fed on supplemented feed rations containing the active ingredient in a ratio of 5, 10, 25, 50 and 100 mg. per kg. of feed. These trials were repeated to confirm the results. In the control test four replicates of ten birds were allowed to feed on a basal ration devoid of the antibiotic supplement. […] Feed consumption was also recorded and improvements in feed efficiency in comparison to the control were calculated. Table 13 records the results of this series of experiments.

[2] = Growth promotion in poultry (general statement); format: in vivo
[3] = Growth stimulating effect and feed efficiency in broiler chicks (Table 12); format: in vivo, Cornish Cross Sexed Broiler Chicks
Experimental: A basal ration was prepared containing the following named ingredients in the quantities hereinafter indicated: […]
Antibiotic X-5108 was added to this ration in a ratio of 50 milligrams of antibiotic per kilogram of ration.
as §1, §2

Streptococcus pyogenes = experiment: Activity against Streptococcus pyogenes infection (CD50); format: in vivo
Bacillus simplex = experiment: Agar diffusion cup-plate assay, Bacillus simplex; format: cell-based; conditions: arbitrarily defined 1 unit/ml. solution
Experimental: (§3) The activity of antibiotic X-5108 can be measured in vitro by its zone of inhibition against the gram-positive bacterium Bacillus E in the usual cup-plate agar diffusion method. Alternately the gram-positive bacterium Bacillus simplex can be employed. Both bacteria give approximately 20 mm. inhibition zones with an arbitrarily defined 1 unit/ml. solution. In this assay method, a culture of the test microorganism is grown in nutrient broth, for example, Trypticase Soy Broth, for 24 to 42 hours at 28° C. in a rotary shaker (100 ml. medium per 500 ml. Erlenmeyer flask). An inoculum concentration of 0.25 to 0.5 percent is used to inoculate the 4 ml. seed layer which is poured over a prehardened 20 ml. of base nutrient agar layer in a 100 ml. glass or disposable plastic Petri dish. The plates are refrigerated for at least two hours before cupping and filling with test solution containing the antibiotic. The plates are then incubated at 35° C. for 18 hours and zone diameters are measured to the nearest 0.5 mm. Calculations of unit per ml. potencies are then made from standard curves.
(§4) The antimicrobial spectrum was determined by employing agar diffusion cup-plate assays as described earlier.

Bacillus E = experiment: Agar diffusion cup-plate assay, Bacillus E; format: cell-based
Experimental: as §3, §4

mice = experiment: Acute toxicity in mice (LD50), oral and subcutaneous; format: in vivo
[4] = test system: a variety of microorganisms including gram-positive and gram-negative bacteria; experiment: Antimicrobial activity in general / biopotency; format: cell-based
Experimental: as §3, §4

caecal coccidiosis = experiment: Activity in caecal coccidiosis; conditions: in vivo

C/C=C\C=C\[C@@H]1O[C@](O)([C@H](CC)C(=O)NC/C=C/C=C(\C)[C@@H](OC)[C@@H](C)[C@@H]2O[C@H](/C=C/C=C/C=C(\C)C(=O)c3c(O)ccn(C)c3=O)[C@H](O)[C@@H]2O)[C@H](O)[C@H](O)C1(C)C [Antibiotic X-5108]
activity against Proteus vulgaris infection (in words) (Proteus vulgaris): active
activity against pneumococcus (in words) (Diplococcus pneumoniae; in vivo): activity against pneumococcus
CD50 (Diplococcus pneumoniae; p.o.): 807 mg/kg
CD50 (Diplococcus pneumoniae; sbc (subcutaneous)): 283 mg/kg
Percent improved feed eff. ([1]; 10 mg./kg., 18 birds): +13%
Feed eff. ([1]; 10 mg./kg., 18 birds, control 1.54): 1.41
Two-week gain ([1]; 10 mg./kg., 18 birds, control 149): 185 g
Percent gain ([1]; 10 mg./kg., 18 birds): 124%
Percent improved feed eff. ([1]; 25 mg./kg., 18 birds): +16%
Feed eff. ([1]; 25 mg./kg., 18 birds, control 1.59): 1.37
Two-week gain ([1]; 25 mg./kg., 18 birds, control 146): 180 g
Percent gain ([1]; 25 mg./kg., 18 birds): 123%
Percent improved feed eff. ([1]; 50 mg./kg., 18 birds): +7%
Feed eff. ([1]; 50 mg./kg., 18 birds, control 1.47): 1.38
Two-week gain ([1]; 50 mg./kg., 18 birds, control 152): 173 g
Percent gain ([1]; 50 mg./kg., 18 birds): 114%
Percent improved feed eff. ([1]; 50 mg./kg., 24 birds): +12%
Feed eff. ([1]; 50 mg./kg., 24 birds, control 1.54): 1.37
Two-week gain ([1]; 50 mg./kg., 24 birds, control 149): 175 g
Percent gain ([1]; 50 mg./kg., 24 birds): 117%
Percent improved feed eff. ([1]; 100 mg./kg., 18 birds): +14%
Feed eff. ([1]; 100 mg./kg., 18 birds, control 1.54): 1.33
Two-week gain ([1]; 100 mg./kg., 18 birds, control 149): 182 g
Percent gain ([1]; 100 mg./kg., 18 birds): 122%
Percent improved feed eff. ([1]; level not given, 18 birds): +9%
Feed eff. ([1]; level not given, 18 birds, control 1.51): 1.39
Two-week gain ([1]; level not given, 18 birds, control 149): 183 g
Percent gain ([1]; level not given, 18 birds): 123%
feed efficiency in poultry (in words) [2]: enhanced feed efficiency
growth promotion in poultry (in words) [2]: exhibits activity as a poultry growth promotant
growth promotion in poultry (in words) ([2]; listed as antibiotic X-5108): marked growth promotion in poultry
growth rate compared to control (in words) ([3]; 50 mg. per kilogram of feed): increased growth rate
improvement in feed efficiency ([3]; 50 mg. per kilogram of feed, vs control): 10%
Two-week gain, g. ±2SE ([3]; 50 mg./kg. feed, average for 40 chicks, basal control 154±8): 185 ± 12 g
Feed efficiency ([3]; 50 mg./kg. feed, two weeks, control 1.55): 1.39
Percent gain ([3]; 50 mg./kg. feed, two weeks, control = 100): 120%
Percent improved feed efficiency ([3]; 50 mg./kg. feed, vs control): +12%
CD50 (Streptococcus pyogenes; orally): 52 mg/kg
CD50 (Streptococcus pyogenes; subcutaneously): 44 mg/kg
antistreptococcal activity (in words) (Streptococcus pyogenes; systemically (oral route) and local (subcutaneous route)): marked antistreptococcal activity
inhibition zone (Bacillus simplex): approximately 20 mm.
inhibition zone (Bacillus E; arbitrarily defined 1 unit/ml. solution): approximately 20 mm.
potency against Bacillus E (Bacillus E; solid powder after butyl acetate extraction, Example 1): 120 units Bacillus E per mg.
LD50 (mice; mice, oral): > 2,000 mg./kg.
toxicity in mice (in words) (mice; mice, orally and subcutaneously): relatively atoxic orally and subcutaneously
LD50 (mice; mice, subcutaneous): 1,320 mg./kg.
oral and parenteral toxicity (in words) (mice; oral and parenteral): low oral and parenteral toxicity
bipotency relative to starting material ([4]; after countercurrent distribution, Example 3): approximately twice that of the starting material
antimicrobial spectrum (in words) ([4]; agar diffusion cup-plate): broad antimicrobial spectrum
activity against a variety of microorganisms (in words) ([4]; crude or more purified form): active against a variety of microorganisms including gram-positive and gram-negative bacteria
activity in caecal coccidiosis (in words) (caecal coccidiosis): activity
